# Read-outs that look alike come from different tables or passages of the source.
# Experiments:
# [1] = Plasma pharmacokinetics after single i.v. dose; assay type: in vivo, Sprague Dawley rats; conditions: Sprague-Dawley, iv, rat
melting point,SMILES,also measured
> 330 °C,"COc1cc2c(cc1OC)-c1[nH]c3ccc(C#N)cc3c1CC(=O)N2 [2,3-dimethoxy, 9-cyano, 2,3-dimethoxy-6-oxo-5,6,7,12-tetrahydro-indolo[3,2-d][1]benzazepine-9-carbonitrile]",
> 330 °C,"COc1cc2c(cc1OC)-c1[nH]c3ccc([N+](=O)[O-])cc3c1CC(=O)N2 [2,3-dimethoxy, 9-nitro, 2,3-dimethoxy-9-nitro-7,12-dihydro-indolo[3,2-d][1]benzazepin-6(5H)-one]",
> 330 °C,"O=C1Cc2c([nH]c3ccc([N+](=O)[O-])cc23)-c2cc(Br)ccc2N1 [2-Br,9-nitro, 2-bromo-9-nitro-7,12-dihydro-indolo[3,2-d][1]benzazepin-6(5H)-one]",
> 330 °C,"O=C1Cc2c([nH]c3ccc(C(F)(F)F)cc23)-c2cc(C#CC3(O)CCCCC3)ccc2N1 [2-[2-(1-hydroxycyclohexyl)-ethinyl]-9-trifluoromethyl-7,12-dihydro-indolo[3,2-d][1]-benzazepin-6(5H)-one]",
> 330 °C,"COOC/C=C/c1ccc2c(c1)-c1[nH]c3ccc(C(F)(F)F)cc3c1CC(=O)N2 [3-(6-oxo-9-trifluoromethyl-5,6,7,12-tetrahydro-indolo[3,2d][1]benzazepin-2-yl)-acrylic acid methyl ester]",
> 330 °C,"S=C1Cc2c([nH]c3ccc(Br)cc23)-c2ccccc2N1 [6 = S, 9-Br, 9-bromo-7,12-dihydro-indolo[3,2-d][1]benzazepine-6(5H) -thione]",
> 330 °C,"O=C1Cc2c([nH]c3ccccc23)-c2cc(Br)ccc2N1 [Example 2-Br, 2-bromo-7,12-dihydro-indolo[3,2-d][1]benzazepin-6(5H)-one]",
> 330 °C,"COc1ccc2[nH]c3c(c2c1)CC(=O)Nc1ccccc1-3 [Example 9-OCH3, 7,12-dihydro-9-methoxy-indolo[3,2-d][1]benzazepin-6(5H)-one]",
,"O=C1Cc2c([nH]c3ccc([N+](=O)[O-])cc23)-c2ccccc2N1 [Example 9-nitro, 9-nitro-7,12-dihydro-indolo[3,2-d][1]benzazepin-6(5H)-one]","clearance ([1]; single i.v. 5 mg/kg in DMSO): 16 mL/min/kg; half-life ([1]; single i.v. 5 mg/kg in DMSO, read-out: half life in the plasma): 46 min; clearance ([1]; single i.v. 10 mg/kg in DMSO): 14 mL/min/kg; half-life ([1]; single i.v. 10 mg/kg in DMSO, read-out: half life in plasma): 66 min"
308 to 310 °C (dec.),O=C1Cc2c([nH]c3ccc(Br)cc23)-c2cc(C[C@@H]3CO3)ccc2N1 [Example 34],
